A short description of the assay: Half-life of ADR destruction by UVA light in the presence of test compounds (decrease in absorbance at 480 nm). Format: physicochemical.
Where [1] appears, read: UVA light, 100 μM test compound alone.
The mark [2] stands for this setting: UVA light, 100 μM test compound with 0.5 μM riboflavin.

This is an account of results in patent publication US20010056085A1, “Methods of using vesicant drug formulations” (priority 1996, published 2001).

Where “and” joins values, the source holds several entries; their conditions need not be identical. Equal entries are not always repeated. Where two headings read alike, the source gives them in different places.

Turning to `OCCc1ccc2ccccc2c1` [2-Naphthaleneethanol], the “Half-Life of ADR Destruction, 100 μM Test Compound” value under setting [1] is 50.2 min. Moreover, the “Half-Life of ADR Destruction, 100 μM Test Compound and 0.5 μM Riboflavin” value under setting [2] stood at 33.5 min.
Regarding 4-Ethoxyphenyl-2-furyl ketone, the “Half-Life of ADR Destruction, 100 μM Test Compound” value under setting [1] was 12.5 min. The “Half-Life of ADR Destruction, 100 μM Test Compound and 0.5 μM Riboflavin” value under setting [2] worked out at 11.2 min.
Regarding `O=C(O)CCc1ccc(O)c(O)c1` [3-(3,4-Dihydroxyphenyl) Propionic Acid], the “Half-Life of ADR Destruction, 100 μM Test Compound” value under setting [1] is 75.3 min.
The same measure, in the same setting: the figure for `O=C(O)c1ccc(-c2ccccc2)cc1` [4-Phenyl Benzoic Acid] is 43.0 min.
For the compound `COc1ccc(C=CC(=O)O)cc1OC` [3,4-Dimethoxy Cinnamic Acid], the “Half-Life of ADR Destruction, 100 μM Test Compound” value under setting [1] is 43.0 min. Moreover, under setting [2], the “Half-Life of ADR Destruction, 100 μM Test Compound and 0.5 μM Riboflavin” value was determined as 5.68 min.
Consider `c1cc[nH]c1` [Pyrrole], for which the “Half-Life of ADR Destruction, 100 μM Test Compound and 0.5 μM Riboflavin” value is 11.6 min.
For the compound `Cn1cccc1` [1-Methyl Pyrrole], under setting [2], the “Half-Life of ADR Destruction, 100 μM Test Compound and 0.5 μM Riboflavin” value was determined as 27.4 min.
On the same count and under the same terms, for `Nc1cccc(F)c1` [3-Fluoro Aniline] the value was 5.90 min.
Consider `CC(=O)c1cccc2ccccc12` [1-Acetonaphthone], for which the “Half-Life of ADR Destruction, 100 μM Test Compound” value under setting [1] was 6.69 min. The “Half-Life of ADR Destruction, 100 μM Test Compound and 0.5 μM Riboflavin” value under setting [2] turned out to be 6.54 min.
As for `COc1ccc(C=CCO)cc1` [4-Methoxy Cinnamyl Alcohol], the “Half-Life of ADR Destruction, 100 μM Test Compound” value under setting [1] turned out to be 50.2 min. Besides, the “Half-Life of ADR Destruction, 100 μM Test Compound and 0.5 μM Riboflavin” value under setting [2] amounted to 9.12 min.
For the compound `COc1cc2ccc(=O)oc2cc1OC` [6,7-Dimethoxycoumarin], under setting [1], the “Half-Life of ADR Destruction, 100 μM Test Compound” value was 21.5 min.
`Nc1ccc(S(N)(=O)=O)cc1` [4-Amino Benzenesulfonamide]: the “Half-Life of ADR Destruction, 100 μM Test Compound and 0.5 μM Riboflavin” value came to 25.1 min.
For `COc1ccc2c(c1)c(CC(=O)OCC(=O)O)c(C)n2C(=O)c1ccc(Cl)cc1` [Acemetacin, {[1-(4-Chlorobenzoyl)-5-methoxy-2-methylindole-3-yl]acetoxy} acetic acid, reference compound], under setting [2], the “Half-Life of ADR Destruction, 100 μM Test Compound and 0.5 μM Riboflavin” value came to 4.63 min.
Consider `O=C1COc2ccccc21` [3-Coumaranone], for which the “Half-Life of ADR Destruction, 100 μM Test Compound” value under setting [1] was 11.2 min. For the same compound, the “Half-Life of ADR Destruction, 100 μM Test Compound and 0.5 μM Riboflavin” value under setting [2] amounted to 11.2 min.
`OCC=Cc1ccccc1` [Cinnamyl Alcohol]: the “Half-Life of ADR Destruction, 100 μM Test Compound” value under setting [1] was 43.0 min.
On to `CC(C(=O)O)c1ccc(C(=O)c2ccccc2)s1` (centres unmarked) [Tiaprofenic Acid, 2-Benzoyl-5-(x-methyl)-thiopheneacetic acid, reference compound], for which, under setting [1], the “Half-Life of ADR Destruction, 100 μM Test Compound” value worked out at 3.20 min. Besides, under setting [2], the “Half-Life of ADR Destruction, 100 μM Test Compound and 0.5 μM Riboflavin” value was 3.24 min.
For `OCCc1ccsc1` [Thiophene-3-ethanol], the “Half-Life of ADR Destruction, 100 μM Test Compound and 0.5 μM Riboflavin” value under setting [2] was found to be 50.2 min.
For the compound `c1ccc(-c2cc3ccccc3[nH]2)cc1` [2-Phenyl Indole], the “Half-Life of ADR Destruction, 100 μM Test Compound and 0.5 μM Riboflavin” value under setting [2] was 14.3 min.
For `CC(=O)c1ccc2[nH]c3ccccc3c2c1` [3-Acetylcarbazole], the “Half-Life of ADR Destruction, 100 μM Test Compound” value (UVA light, test compound alone, +4% DMSO) was found to be 30.1 min. For the same compound, under “UVA light, with 0.5 μM riboflavin, +4% DMSO”, the “Half-Life of ADR Destruction, 100 μM Test Compound and 0.5 μM Riboflavin” value worked out at 23.2 min.
On to `Cc1ccc(N)c(CO)c1` [2-Amino-5-Methyl Benzyl Alcohol], for which the “Half-Life of ADR Destruction, 100 μM Test Compound and 0.5 μM Riboflavin” value under setting [2] amounted to 24.5 ± 8.0 min.
Take `COc1ccccc1CN` [2-Methoxy Benzylamine]: the “Half-Life of ADR Destruction, 100 μM Test Compound and 0.5 μM Riboflavin” value under setting [2] is 43.0 min.
Take `CCc1c(C)c[nH]c1C` [2,4-Dimethyl-3-ethyl Pyrrole]: the “Half-Life of ADR Destruction, 100 μM Test Compound and 0.5 μM Riboflavin” value under setting [2] stood at 20.1 min.
In the case of `O=c1[nH]c(=O)c2nccnc2[nH]1` [Lumazine], the “Half-Life of ADR Destruction, 100 μM Test Compound” value under setting [1] was determined as 5.79 min. The “Half-Life of ADR Destruction, 100 μM Test Compound and 0.5 μM Riboflavin” value under setting [2] was found to be 3.31 min.
The like results for `O=C(O)CCC(=O)c1ccc(-c2ccccc2)cc1` [Fenbufen, reference compound] were, in that order, 12.5 min and 12.0 min.
For the compound `Nc1c(F)cccc1F` [2,6-Difluoro Aniline], the “Half-Life of ADR Destruction, 100 μM Test Compound and 0.5 μM Riboflavin” value under setting [2] amounted to 27.4 min.
Same read-out and setting: the figure for `O=Cc1c[nH]c2ccccc12` [Indole-3-carboxaldehyde] is 30.1 min; for `O=c1cc[nH]c(=O)[nH]1` [Uracil] it is 50.2 min.
For `O=C(O)CCCc1ccc2ccccc2c1` [4-(2-Naphthyl)butyric acid], the “Half-Life of ADR Destruction, 100 μM Test Compound” value under setting [1] came out at 43.0 min. Further, the “Half-Life of ADR Destruction, 100 μM Test Compound and 0.5 μM Riboflavin” value under setting [2] amounted to 15.1 min.
`Oc1ccc2[nH]ccc2c1` [5-Hydroxy Indole]: under setting [2], the “Half-Life of ADR Destruction, 100 μM Test Compound and 0.5 μM Riboflavin” value is 150.5 min and 75.3 min.
Still for that read-out and setting: for `OCCc1ccc(O)cc1` [4-Hydroxy Phenylethyl Alcohol] the value was 50.2 min.
Take `O=C(O)c1cccc2c1-c1ccccc1C2` [4-Fluorene Carboxylic acid]: the “Half-Life of ADR Destruction, 100 μM Test Compound” value under setting [1] was 30.1 min. Also, the “Half-Life of ADR Destruction, 100 μM Test Compound and 0.5 μM Riboflavin” value under setting [2] is 18.8 min.
On to `O=C(O)CCC(=O)c1ccc2ccccc2c1` [γ-Oxo-2-naphthalenebutyric acid], for which the “Half-Life of ADR Destruction, 100 μM Test Compound” value under setting [1] worked out at 8.36 min. Also, the “Half-Life of ADR Destruction, 100 μM Test Compound and 0.5 μM Riboflavin” value under setting [2] came to 8.18 min.
In the case of `CCC(C)c1ccccc1N` (centres unmarked) [2-sec-Butyl Aniline], under setting [2], the “Half-Life of ADR Destruction, 100 μM Test Compound and 0.5 μM Riboflavin” value worked out at 10.4 min.
Turning to `Nc1ccc2ccccc2c1` [2-Aminonaplithalene], the “Half-Life of ADR Destruction, 100 μM Test Compound and 0.5 μM Riboflavin” value was 20.1 min.
As to `Nc1ccc(F)cc1` [4-Fluoro Aniline], the “Half-Life of ADR Destruction, 100 μM Test Compound and 0.5 μM Riboflavin” value under setting [2] came to 12.0 min.
The same measure, in the same setting: for Dimethyl-2,3-indolecarboxylic acid the value was 12.0 min.
Consider `O=C(c1ccccc1)c1ccncc1` [4-Benzoylpyridine], for which the “Half-Life of ADR Destruction, 100 μM Test Compound” value under setting [1] was determined as 17.2 ± 1.9 min. Under setting [2], the “Half-Life of ADR Destruction, 100 μM Test Compound and 0.5 μM Riboflavin” value came to 11.6 min.
The like results for `Nc1cc2ccccc2cc1C(=O)O` [3-Atninonaphthalene-2-carboxylic acid] were, in that order, 75.3 min and 50.2 min.
With `Cn1c(=O)[nH]c2[nH]c(=O)[nH]c2c1=O` [1-Methyl Uric acid], the “Half-Life of ADR Destruction, 100 μM Test Compound and 0.5 μM Riboflavin” value under setting [2] came out at 33.4 min.
On the same count and under the same terms, the figure for `CC(C(=O)O)c1ccc2c(c1)[nH]c1ccc(Cl)cc12` (stereo not drawn) [6-Chlro-α-methyl-carbazole-2-acetic acid, reference compound] is 25.6 ± 11.2 min.
`Cn1c(=O)c2[nH]c(=O)[nH]c2n(C)c1=O` [1,3-Dimethyl Uric acid]: the “Half-Life of ADR Destruction, 100 μM Test Compound” value under setting [1] was found to be 75.3 min. For the same compound, under setting [2], the “Half-Life of ADR Destruction, 100 μM Test Compound and 0.5 μM Riboflavin” value stood at 21.5 min.
The like results for `COc1ccccc1C(C)=O` [2′-Methoxyacetophenone] were, in that order, 25.1 min and 21.5 min.
The matching figures for `COc1cc(/C=C/CO)ccc1O[C@@H]1O[C@H](CO)[C@@H](O)[C@H](O)[C@H]1O` [Coniferin]: 50.2 min and 15.1 min.
As to `O=C1CC(c2ccccc2)Oc2ccccc21` (centres unmarked) [2-Phenylchromanone (Flavanone), 2-Phenylchromanone], the “Half-Life of ADR Destruction, 100 μM Test Compound and 0.5 μM Riboflavin” value under setting [2] is 50.2 min.
Consider `COc1ccc2[nH]c(C)cc2c1` [5-Methoxy-2-methyl Indole], for which the “Half-Life of ADR Destruction, 100 μM Test Compound” value turned out to be 27.4 min; the “Half-Life of ADR Destruction, 100 μM Test Compound and 0.5 μM Riboflavin” value amounted to 7.00 min.
Consider `CC(=O)c1cccn1C` [2-Acetyl-1-methyl Pyrrole], for which, under setting [2], the “Half-Life of ADR Destruction, 100 μM Test Compound and 0.5 μM Riboflavin” value was 50.2 min.
The same measure, in the same setting: for `O=S(=O)(O)c1ccccc1` [Benzenesulfonic acid] the value was 50.2 min; for `O=C(O)Cc1ccc(O)cc1` [4-Hydroxy Phenylacetic Acid], 75.3 min; for `Nc1ccc(CCO)cc1` [4-Amino Phenylethyl Alcohol], 10.8 min.
The same measure, in the same setting: for `CCCCc1ccccc1N` [2-Butyl Aniline] the value was 10.2 min.
As for `O=C(O)CCCc1ccccc1` [4-Phenyl Butyric Acid], the “Half-Life of ADR Destruction, 100 μM Test Compound” value under setting [1] turned out to be 43.0 min. Further, the “Half-Life of ADR Destruction, 100 μM Test Compound and 0.5 μM Riboflavin” value under setting [2] was 33.5 min.
On to `CCc1cccc2c3c([nH]c12)C(CC)(CC(=O)O)OCC3` (centres unmarked) [Etodolac, reference compound], for which, under setting [1], the “Half-Life of ADR Destruction, 100 μM Test Compound” value came to 33.5 min. Further, the “Half-Life of ADR Destruction, 100 μM Test Compound and 0.5 μM Riboflavin” value under setting [2] came to 6.41 min.
The like results for `COc1ccc2c(C(=O)C(N)=O)c[nH]c2c1` [6-Methoxy-3-indoleglyoxylamide] were, in that order, 75.3 min and 30.1 min.
`COc1ccc(C(=O)c2cccs2)cc1` [2-(4-Methoxybenzoyl)-thiophene]: the “Half-Life of ADR Destruction, 100 μM Test Compound” value under setting [1] stood at 9.41 min. Moreover, under setting [2], the “Half-Life of ADR Destruction, 100 μM Test Compound and 0.5 μM Riboflavin” value was found to be 8.36 min.
The like results for `COc1ccc(CCCO)cc1` [3-(4-Methoxyphenyl)-1-Propanol] were, in that order, 43.0 min and 1.68 min.
Take `Cc1[nH]c2ccccc2c1CC(=O)O` [2-Methylindole-3-acetic acid]: under setting [2], the “Half-Life of ADR Destruction, 100 μM Test Compound and 0.5 μM Riboflavin” value was found to be 4.57 ± 2.92 min.
